In patent publication EP3876933B1, “NEUTROPHIL INFLAMMATION INHIBITOR AND USES THEREOF” (Chang Gung University of Science and Technology, priority 2018, dated 2020):

Experiments:
human neutrophils [1] = test: Superoxide anion (O2˙-) generation in fMLF/CB-activated human neutrophils (SOD-inhibitable ferricytochrome c reduction); format: cell-based; conditions: FMLP/CB-induced human neutrophils, mean ± S.E.M. (n = 3-5); for IC50 / inhibition at 10 µM: Neutrophil; for IC50: read-out: Superoxide Anion IC50; for inhibition at 10 µM / Superoxide Anion Inhibition %: at 10 µM concentration
Procedure: (§1) Human neutrophils were obtained in lipopolysaccharide-free conditions by means of dextran sedimentation and Ficoll centrifugation.
O2˙^- production was determined based on the SOD-inhibitable reduction of ferricytochrome c. Briefly, neutrophils (6 × 10^5/mL) were treated with a candidate compound at 37 °C at various concentrations (0.001 to 10 µM) for 5 min after being supplementing with 0.5 mg/mL ferricytochrome c and 1 mM Ca^2+. Cells were then activated with fMLF (0.1 µM) for 10 min in the pre-process of cytochalasin B (CB, 1 µg/mL) for 3 min. Changes in absorbance with the reduction of ferricytochrome c at 550 nm were continuously monitored in a double-beam, six-cell positioner spectrophotometer with constant stirring (Hitachi U-3010, Tokyo, Japan). Calculations were based on the differences in the reactions with and without SOD (100 U ml^-1) divided by the extinction coefficient for the reduction of ferricytochrome c (ε = 21.1 mM^-1/10 mm).

human neutrophils [2] = test: Elastase release in fMLF/CB-activated human neutrophils (Methoxysuccinyl-Ala-Ala-Pro-Val-p-nitroanilide substrate); format: cell-based; conditions: Neutrophil, FMLP/CB-induced human neutrophils, mean ± S.E.M. (n = 3-5); for IC50: read-out: Elastase Release IC50; for inhibition at 10 µM: at 10 µM concentration
Procedure: as §1
Methoxysuccinyl-Ala-Ala-Pro-Val-p-nitroanilide was employed as the elastase substrate for the determination of elastase release. Briefly, after supplementation with Methoxysuccinyl-Ala-Ala-Pro-Val-p-nitroanilide (100 µM), neutrophils (6 × 10^5/mL) were equilibrated at 37 °C for 2 min and incubated with a candidate compound at various concentrations for 5 min. Cells were then activated with fMLF (0.1 µM) for 10 min in the pre-process of CB (0.5 µg/mL) for 3 min, and changes in absorbance at 405 nm were continuously monitored to evaluate elastase release. Results are expressed as the percentage of elastase release in the drug-free control group, DMSO.

| SMILES | IC50 (human neutrophils [1]) [µM] | inhibition at 10 µM (human neutrophils [1]) [%] | IC50 (human neutrophils [2]) [µM] | inhibition at 10 µM (human neutrophils [2]) [%] | Superoxide Anion Inhibition % (human neutrophils [1]) |
| --- | --- | --- | --- | --- | --- |
| Cn1nc(N)c2c(Nc3ccc(F)cc3)nc3ccccc3c21 [Compound 4, 4-(4-Fluoroanilino)-1-methyl-1H-pyrazolo[4,3-c]quinolin-3-amine] | 1.44 ± 0.22 | 91.2 ± 4.43 | 5.5 ± 1.5 | 68 ± 6.8 | – |
| Nc1noc2c1c(Nc1ccc(O)cc1)nc1ccccc12 [Compound 29, 4-(4-Hydroxyanilino)isoxazolo[4,5-c]quinolin-3-amine] | 0.65 ± 0.2 | 91.1 ± 0.38 | > 10 | 29.9 ± 6.66 | – |
| COc1cccc(Nc2nc3ccccc3c3c2c(N)nn3C)c1 [Compound 6, 4-(3-Methoxyanilino)-1-methyl-1H-pyrazolo[4,3-c]quinolin-3-amine] | > 10 | 27.5 ± 5.47 | > 10 | 33.4 ± 6.04 | – |
| Cc1ccc(Nc2nc3ccccc3c3onc(N)c23)cc1 [Compound 33, 4-(4-Methylanilino)isoxazolo[4,5-c]quinolin-3-amine] | – | – | 7.24 ± 0.72 | 68 ± 5.23 | enhanced |
| COc1ccccc1Nc1nc2ccccc2c2onc(N)c12 [Compound 21, 4-(2-Methoxyanilino)isoxazolo[4,5-c]quinolin-3-amine] | > 10 | 32.7 ± 4.92 | > 10 | -8.32 ± 2.23 | – |
| COc1cc(Nc2nc3ccccc3c3c2c(N)nn3C)cc(OC)c1OC [Compound 8, 4-(3,4,5-Trimethoxyanilino)-1-methyl-1H-pyrazolo[4,3-c]quinolin-3-amine] | 0.8 ± 0.09 | 98.2 ± 2.41 | 3.25 ± 0.08 | 89.8 ± 6.51 | – |
| Cn1nc(N)c2c(Nc3ccccc3)nc3ccccc3c21 [Compound 3, 4-Anilino-l-methyl-1H-pyrazolo[4,3-c]quinolin-3-amine] | 2.39 ± 0.63 | 93.9 ± 6.32 | 4.09 ± 1.02 | 80.5 ± 2.57 | – |
| COc1ccccc1Nc1nc2ccccc2c2c1c(N)nn2C [Compound 5, 4-(2-Methoxyanilino)-1-methyl-1H-pyrazolo[4,3-c]quinolin-3-amine] | 1.37 ± 0.08 | 90.1 ± 3.38 | 4.65 ± 2.57 | 66 ± 6.51 | – |
| CC(=O)c1ccc(Nc2nc3ccccc3c3c2c(N)nn3C)cc1 [Compound 10, 4-(4-Acetoylanilino)-1-methyl-1H-pyrazolo[4,3-c]quinolin-3-amine] | 1.58 | 85.1 ± 1.66 | 4.63 ± 1.1 | 57.2 | – |
| Cn1nc(N)c2c(Nc3ccc(C(F)(F)F)cc3)nc3ccccc3c21 [Compound 14, 4-(4-Trifluoromethylanilino)-1-methyl-1H-pyrazolo[4,3-c]quinolin-3-amine] | 4.56 ± 0.83 | 63.1 ± 2.51 | > 10 | 37.6 ± 6.22 | – |
| Nc1noc2c1c(Nc1ccccc1O)nc1ccccc12 [Compound 28, 4-(2-Hydroxyanilino)isoxazolo[4,5-c]quinolin-3-amine] | 4.54 ± 1.18 | 91 ± 1.69 | 5.77 ± 1.14 | 77.6 ± 4.52 | – |
| Cn1nc(N)c2c(Nc3cccc(O)c3)nc3ccccc3c21 [Compound 12, 4-(3-Hydroxyanilino)-1-methyl-1H-pyrazolo[4,3-c]quinolin-3-amine] | 1.89 ± 0.69 | 93.2 ± 3.66 | 4.62 ± 1.74 | 94.4 ± 8.34 | – |
| Nc1noc2c1c(Nc1ccc(C(=O)O)cc1)nc1ccccc12 [Compound 31, 4-[(3-aminoisoxazolo[4,5-c]quinolin-4-yl)amino]benzoic acid] | > 10 | 7.44 ± 4.23 | > 10 | -1.4 ± 3.53 | – |
| COc1cc(Nc2nc3ccccc3c3onc(N)c23)cc(OC)c1OC [Compound 24, 4-(3,4,5-Trimethoxyanilino)isoxazolo[4,5-c]quinolin-3-amine] | > 10 | 17.1 ± 3.77 | > 10 | -10.6 ± 3.81 | – |
| Nc1noc2c1c(Nc1ccc(F)cc1)nc1ccccc12 [Compound 20, 4-(4-Fluoroanilino)isoxazolo[4,5-c]quinolin-3-amine] | 6.16 ± 1.18 | 63.2 ± 7.76 | > 10 | 10.7 ± 4 | – |
| Nc1noc2c1c(Nc1ccc(Cl)cc1)nc1ccccc12 [Compound 32, 4-(4-Chloroanilino)isoxazolo[4,5-c]quinolin-3-amine] | > 10 | 38.6 ± 2.3 | > 10 | 3.69 ± 3.42 | – |
| Nc1noc2c1c(Nc1ccccc1)nc1ccccc12 [Compound 19, 4-Anilinoisoxazolo[4,5-c]quinolin-3-amine] | > 10 | 43.7 ± 6.43 | > 10 | 5.81 ± 5.22 | – |
| Cn1nc(N)c2c(Nc3ccc(Cl)cc3)nc3ccccc3c21 [Compound 17, 4-(4-Chloroanilino)-1-methyl-1H-pyrazolo[4,3-c]quinolin-3-amine] | 3.49 ± 1.25 | 82.8 ± 5.36 | 5.28 ± 0.66 | 75.8 ± 6.64 | – |
| Cn1nc(N)c2c(Nc3ccc(C(=O)O)cc3)nc3ccccc3c21 [Compound 15, 4-[(3-Amino-1-methyl-1H-pyrazolo[4,3-c]quinolin-4-yl)amino]benzoic acid] | 1.83 | 82.9 ± 2.86 | 3.68 ± 0.42 | 79.4 ± 1.91 | – |
| Cn1nc(N)c2c(Nc3ccccc3S)nc3ccccc3c21 [Compound 16, 2-[(3-amino-1-methyl-1H-pyrazolo[4,3-c]quinolin-4-yl)amino]benzenethiol] | > 10 | 4.05 ± 2.95 | > 10 | -3.34 ± 1.78 | – |
| Nc1noc2c1c(Nc1ccc(C(F)(F)F)cc1)nc1ccccc12 [Compound 30, 4-(4-Trifluoromethylanilino)isoxazolo[4,5-c]quinolin-3-amine] | – | – | 6.23 ± 0.52 | 81.5 ± 6.97 | enhanced |
| CC(=O)c1ccc(Nc2nc3ccccc3c3onc(N)c23)cc1 [Compound 27, 4-(4-Acetoylanilino)isoxazolo[4,5-c]quinolin-3-amine] | > 10 | 37.4 ± 5.43 | > 10 | -9.53 ± 5.26 | – |
| CSc1ccc(Nc2nc3ccccc3c3onc(N)c23)cc1 [Compound 25, 4-(4-Methylthioanilino)isoxazolo[4,5-c]quinolin-3-amine] | – | – | > 10 | 18.1 ± 3.97 | enhanced |
| COc1ccc(Nc2nc3ccccc3c3c2c(N)nn3C)cc1 [Compound 7, 4-(4-Methoxyanilino)-1-methyl-1H-pyrazolo[4,3-c]quinolin-3-amine] | 0.51 ± 0.17 | 99.3 ± 1.51 | 3.77 ± 0.71 | 96.7 ± 6.56 | – |
| CSc1ccc(Nc2nc3ccccc3c3c2c(N)nn3C)cc1 [Compound 9, 1-Methyl-4-(4-methylthioanilino)-1H-pyrazolo[4,3-c]quinolin-3-amine] | > 10 | 47.7 ± 3.32 | > 10 | 20.8 ± 3.75 | – |
| Cc1ccc(Nc2nc3ccccc3c3c2c(N)nn3C)cc1 [Compound 18, 4-(4-Methylanilino)-1-methyl-1H-pyrazolo[4,3-c]quinolin-3-amine] | 5.21 ± 1.9 | 69.7 ± 7.05 | > 10 | 39.7 ± 3.83 | – |
| COc1cccc(Nc2nc3ccccc3c3onc(N)c23)c1 [Compound 22, 4-(3-Methoxyanilino)isoxazolo[4,5-c]quinolin-3-amine] | 6.53 ± 0.9 | 69.2 ± 3.14 | > 10 | -3.61 ± 0.98 | – |
